Drawing on patent US9428504B2, “7-hydroxy-spiropipiperidine indolinyl antagonists of P2Y1 receptor” (BRISTOL-MYERS SQUIBB COMPANY, priority 2012, dated 2016), this text covers Ki and IC50 for six molecules.

Structures can show the parent of a compound that is named as a salt. Where two headings read alike, the source gives them in different places.

Assay [1] has as its target cloned human P2Y1 receptors (Homo sapiens (Human), UniProt P47900). Briefly: Binding Assay A: membrane binding assay, [33P] 2MeS-ADP. From the text:
A membrane binding assay was used to identify inhibitors of [^33P] […] The cDNA clone for human P2Y1 was obtained from Incyte Pharmaceuticals and its sequence confirmed by established techniques (for a compendium of techniques used see Ausubel, F. et al. Current Protocols in Molecular Biology, John Wiley and Sons, NY, N.Y. (1995)). The essential coding sequences were subcloned into pCDNA 3.1 (Invitrogen) to produce a P2Y1 expression construct. This construct was then transfected into the human embryonic kidney cell line HEK-293 and stable transfectants selected in GENETICIN® (G418 sulfate; Life Technologies). […] Membranes were prepared by growing HEK293 #49 in 150 mm dishes in DMEM/10% FBS in the presence of 1 mg/ml G418 until cells were 80-90% confluent. Plates were then washed with cold (4° C.) D-PBS twice and cells harvested by scraping into 10 mL D-PBS. Cells were pelleted by centrifugation (1,000 g, 10 min, 4° C.) and the resulting pellet resuspended in Lysis Buffer (10 mM Tris (7.4), 5 mM MgCl2 containing Complete protease inhibitor cocktail (Roche Cat #1873580) as recommended by the manufacturer). The suspension was then homogenized in a Dounce homogenizer (10-15 strokes; B pestle, on ice) and the homogenate spun at 1,000 g, 4° C., 5 min to pellet large debris. The supernatant was centrifuged at 150,000 g, 4° C., for 1 hour and the resulting membrane pellet resuspended in 0.5-1 mL of Buffer B (15 mM HEPES (7.4), 145 mM NaCl, 0.1 mM MgCl2, 5 mM EDTA, 5 mM KCl) and stored at −70° C. until used.
Binding reactions were performed in WGA FLASHPLATE®s (PerkinElmer Life Sciences, Cat # SMP105A) in a volume of 200 μL containing ˜45 fmol of P2Y1 receptor (5 μg of total protein), 0.5 nM [^33P] […] Reactions were allowed to proceed to completion at room temperature for 1 hour and then the aqueous solution aspirated. Plates were sealed and the residual [^33P] bound to the plate determined by scintillation counting.

Assay [2] relates to human platelet rich plasma (PRP). Put plainly: ADP induced platelet aggregation assay.
The mark [3] stands for this setting: values marked *, WGA FlashPlate, [33P] 2MeS-ADP displacement, read-out: P2Y1 Ki (nM) *Using binding assay A.
Setting [4] is: Homo sapiens, Platelet, read-out: PA IC50 (μM) @ 10 μM ADP, platelet aggregation induced by 10 μM ADP, human PRP.

Sequence of cloned human P2Y1 receptors (P47900 whole entry): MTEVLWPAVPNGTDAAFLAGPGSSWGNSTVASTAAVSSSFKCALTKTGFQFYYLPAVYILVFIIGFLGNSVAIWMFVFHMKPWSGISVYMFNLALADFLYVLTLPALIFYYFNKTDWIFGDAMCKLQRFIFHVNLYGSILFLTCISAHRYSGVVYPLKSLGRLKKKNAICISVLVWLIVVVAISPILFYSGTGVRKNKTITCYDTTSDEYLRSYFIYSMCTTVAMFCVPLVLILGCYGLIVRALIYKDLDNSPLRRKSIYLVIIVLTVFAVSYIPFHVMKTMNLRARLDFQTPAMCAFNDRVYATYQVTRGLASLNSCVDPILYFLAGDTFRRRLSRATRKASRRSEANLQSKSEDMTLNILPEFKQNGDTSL

For orientation: Ki means a dissociation constant, usually derived from enzyme kinetics or from competition with a known ligand. A word on the IC50: it is the concentration needed to halve the response being measured. Take `Cc1ccc2nc(NC(=O)Nc3ccccc3N3CC4(CCN(CC(C)(C)C)CC4)c4c(F)ccc(O)c43)sc2c1` [Example 34, 1-(2-(7-Hydroxy-4-fluoro-1′-neopentylspiro[indoline-3,4′-piperidine]-1-yl)phenyl)-3-(6-methylbenzo[d]thiazol-2-yl)urea]: in assay [1] (setting [3]), the Ki worked out at 3.7 nM. Also, the half-inhibitory concentration (IC50) in assay [2] (setting [4]) came to 0.5 µM.

With `CC(C)c1nsc(NC(=O)Nc2ccccc2N2CC3(CCN(CC(C)(C)C)CC3)c3c(F)ccc(O)c32)n1` [Example 35, 1-(2-(4-Fluoro-7-hydroxy-1′-neopentylspiro[indoline-3,4′-piperidine]-1-yl)phenyl)-3-(3-isopropyl-1,2,4-thiadiazol-5-yl)urea], the Ki in assay [1] (setting [3]) stood at 1.9 nM. The IC50 in assay [2] (setting [4]) is 0.3 µM.

Regarding `Cc1nsc(NC(=O)Nc2ccccc2N2CC3(CCN(CC(C)(C)C)CC3)c3c(Cl)ccc(O)c32)n1` [Example 42, 1-(2-(4-Chloro-7-hydroxy-1′-neopentylspiro[indoline-3,4′-piperidine]-1-yl)phenyl)-3-(3-methyl-1,2,4-thiadiazol-5-yl)urea], the Ki in assay [1] (setting [3]) came to 3.3 nM. Further, the IC50 in assay [2] (setting [4]) worked out at 0.3 µM.

Turning to `CC(C)c1nsc(NC(=O)Nc2ccccc2N2CC3(CCN(CC(C)(C)C)CC3)c3c(Cl)ccc(O)c32)n1` [Example 43, 1-(2-(4-Chloro-7-hydroxy-1′-neopentylspiro[indoline-3,4′-piperidine]-1-yl)phenyl)-3-(3-isopropyl-1,2,4-thiadiazol-5-yl)urea], the Ki in assay [1] (setting [3]) turned out to be 4.4 nM. Further, the 50% inhibitory concentration (IC50) in assay [2] (setting [4]) turned out to be 0.3 µM.

With `CC(C)(C)CN1CCC2(CC1)CN(c1ccccc1NC(=O)Nc1nc3ccc(Cl)cc3s1)c1c(O)cccc12` [Example 75, 1-(6-Chlorobenzo[d]thiazol-2-yl)-3-(2-(7-hydroxy-1′-neopentylspiro [indoline-3,4′-piperidine]-1-yl)phenyl)urea], the inhibition constant (Ki) in assay [1] (setting [3]) came to 7.5 nM. Besides, the concentration for half-maximal inhibition (IC50) in assay [2] (setting [4]) was 0.4 µM.

On to `CC(C)(C)CN1CCC2(CC1)CN(c1ccccc1NC(=O)Nc1nc3ccc(Cl)nc3s1)c1c(O)ccc(Cl)c12` [Example 167, 1-(2-(4-Chloro-7-hydroxy-1′-neopentylspiro[indoline-3,4′-piperidine]-1-yl)phenyl)-3-(5-chlorothiazolo[5,4-b]pyridin-2-yl)urea, methanesulfonic acid salt], for which the affinity in assay [1] corresponds to a Ki of 3.3 nM. For the same molecule, the IC50 in assay [2] (read-out: PA IC50 (μM) @ 10 μM ADP, platelet aggregation induced by 10 μM ADP, human PRP) turned out to be 0.5 µM.
